{
  "source": "paper PMC4490227",
  "about": "“Identification of Glycyrrhiza as the rikkunshito constituent with the highest antagonistic potential on heterologously expressed 5-HT3A receptors due to the action of flavonoids” (Frontiers in Pharmacology, 2015)",
  "target": "T1, human 5-HT3A receptors (Homo sapiens, UniProt P46098)",
  "T1 sequence (P46098 24-478)": "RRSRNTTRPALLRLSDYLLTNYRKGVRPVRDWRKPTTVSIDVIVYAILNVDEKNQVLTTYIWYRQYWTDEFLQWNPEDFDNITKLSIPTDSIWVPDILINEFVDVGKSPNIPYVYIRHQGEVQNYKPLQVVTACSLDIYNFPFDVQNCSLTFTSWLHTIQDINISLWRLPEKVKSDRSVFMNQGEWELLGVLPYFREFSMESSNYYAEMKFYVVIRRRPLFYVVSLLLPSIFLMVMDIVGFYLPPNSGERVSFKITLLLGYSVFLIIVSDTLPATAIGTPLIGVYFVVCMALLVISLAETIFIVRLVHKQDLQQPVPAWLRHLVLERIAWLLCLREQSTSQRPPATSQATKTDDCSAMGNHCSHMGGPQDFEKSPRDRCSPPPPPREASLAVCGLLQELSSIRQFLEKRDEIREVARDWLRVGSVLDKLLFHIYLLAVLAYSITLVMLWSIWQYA",
  "assay": "Two-electrode voltage-clamp: modulation of 5-HT-induced currents at 5-HT3A receptors heterologously expressed in Xenopus laevis oocytes",
  "format": "cell-based",
  "parameters": "key to mode of antagonism: c, apparently competitive; nc, non-competitive",
  "details": "for synergistic effects between different herbal 5-HT3A receptor antagonists: pairs: 6-gingerol and citronellol, hesperetin and 6-shogaol (Supplementary Figure 3); for IC50: read-out: IC50 of substances; for inhibition of the 5-HT3A receptor response by solvent: solvent 1.0 Vol.-%",
  "description": "The expression plasmid contains the cDNA coding for the 5-HT3A protein in pcDNA3 (Invitrogen) (Lobitz et al., [2001]). cRNAs were prepared using the AmpliCap T7 high-yield message marker kit (Epicenter, Madison, WI, USA), following the manufacturer's protocol. Xenopus laevis oocytes were obtained as previously described (Sherkheli et al., [2010]) and injected with a total amount of 7–20 ng of the receptor-coding cRNA using an injection-setup from WPI (Nanoliter 2000, Micro4). The injected oocytes were stored in ND 96 (96.0 mM NaCl, 2.0 mM KCl, 1.8 mM CaCl2, 1.0 mM MgCl2, 5.0 mM HEPES, pH 7.2, 200 U/ml penicillin, and 200 μg/ml streptomycin) at 17°C. Measurements were performed one to 5 days after cRNA injection.\nThe electrophysiological recordings were performed using the two-electrode voltage-clamp technique as previously described (Saras et al., [2008]). All of the measurements were performed in normal frog ringer (NFR) [115 mM NaCl, 2.5 mM KCl, 1.8 mM CaCl2, 10 mM HEPES; pH 7.2 (NaOH/HCl)] containing niflumic acid (NA) (100 μM) to block the Ca^2+-induced currents mediated by the intrinsic chloride channel (TMEM16A) or under Ca^2+-free conditions [115 mM NaCl, 2.5 mM KCl, 1.8 mM MgCl2, 10 mM HEPES; pH 7.2 (NaOH/HCl)]. All of the substances were applied after preincubation (30 s). The currents were recorded at a holding potential of typically −60 mV using the Cell Works 6.1.1. software (NPI).\nAs a control, we tested the competitive antagonists ondansetron (1 nM) and d-tubocurarine (20 μM) (Hope et al., [1996]) and the non-competitive antagonist picrotoxin (50 μM) (Das and Dillon, [2005]). […] Nevertheless, a definitive differentiation between competitive, allosteric, and concentration-dependent antagonists must be performed using ligand binding assays.\nThe concentration-response data were fitted with the Hill equation with variable slope using SigmaPlot 8.0 (SPSS). Thereby, the calculation of the EC50 and IC50-values was done. The deviations are represented by the standard error of the mean (SEM). The datasets were tested for statistically significant differences through Student's t-test using Excel 2010 (Microsoft) (^*p < 0.05; ^**p < 0.005; ^***p < 0.0005). For multiple comparisons, the significance levels were corrected via Bonferroni-correction.",
  "key": {"[1]": {"details": "from comparison of inhibition at 2.5 and 30 μM 5-HT"}, "[2]": {"details": "inhibition at 2.5 vs 30 μM 5-HT"}, "[3]": {"details": "read-out: Mean inhibition ± SEM [%] 5-HT [2.5 μM]"}, "[4]": {"details": "read-out: Mean inhibition ± SEM [%] 5-HT [30 μM]"}, "[5]": {"details": "substance 1 mM (Figure 2A), read-out: 5-HT3A receptor inhibition by the substances (screening)"}},
  "note": "Like-named read-outs stand apart in the source and are kept apart here.",
  "data": [
    {"compound": "CCCCC[C@H](O)CC(=O)CCc1ccc(O)c(OC)c1", "note": "[6-gingerol]", "values": [
      {"measurement": "synergistic effects between different herbal 5-HT3A receptor antagonists", "result": "synergistic"}
    ]},
    {"compound": "CCCCC/C=C/C(=O)CCc1ccc(O)c(OC)c1", "note": "[6-shogaol]", "values": [
      {"measurement": "synergistic effects between different herbal 5-HT3A receptor antagonists", "result": "synergistic"}
    ]},
    {"compound": "O=C1C[C@@H](c2ccc(O)cc2)Oc2cc(O)ccc21", "note": "[(-)-liquiritigenin]", "values": [
      {"measurement": "mode of antagonism", "setting": "[1]", "result": "^*/nc"},
      {"measurement": "mode of antagonism", "setting": "[2]", "result": "non-competitive"},
      {"measurement": "IC50", "result": "210 ± 25", "unit": "µM"},
      {"measurement": "inhibition at 500 µM", "setting": "[3]", "result": "84.5 ± 2.4", "unit": "%"},
      {"measurement": "inhibition at 500 µM", "setting": "[4]", "result": "93.5 ± 0.5", "unit": "%"},
      {"measurement": "inhibition at 1000 µM", "setting": "[5]", "result": "92.8 ± 2.2", "unit": "%"}
    ]},
    {"compound": "C=C1CCC[C@]2(C)C[C@]3(O)OC(=O)C(C)=C3C[C@@H]12", "note": "[Atractylenolide III, atractylenolide III]", "values": [
      {"measurement": "mode of antagonism", "setting": "[1]", "result": "ns/nc"},
      {"measurement": "IC50", "result": "1320 ± 145", "unit": "µM"},
      {"measurement": "inhibition at 1000 µM", "setting": "[3]", "result": "55 ± 6.2", "unit": "%"},
      {"measurement": "inhibition at 1000 µM", "setting": "[4]", "result": "57.8 ± 6", "unit": "%"}
    ]},
    {"compound": "COc1cc2c3cc1Oc1cc(ccc1O)C[C@@H]1c4c(cc(OC)c(O)c4Oc4ccc(cc4)C[C@@H]3N(C)CC2)CC[N+]1(C)C", "note": "[D-tubocurarine, d-tubocurarine, reference compound]", "values": [
      {"measurement": "mode of antagonism", "setting": "[1]", "result": "^**/c"},
      {"measurement": "inhibition at 20 µM", "setting": "[3]", "result": "82 ± 3.5", "unit": "%"},
      {"measurement": "inhibition at 20 µM", "setting": "[4]", "result": "45.9 ± 4.8", "unit": "%"}
    ]},
    {"compound": "C[S+](C)[O-]", "note": "[DMSO, dimethyl sulfoxide]", "values": [
      {"measurement": "inhibition of the 5-HT3A receptor response by solvent", "result": "29.1 ± 4.7", "unit": "%"}
    ]},
    {"compound": "CCO", "note": "[Ethanol, ethanol]", "values": [
      {"measurement": "inhibition of the 5-HT3A receptor response by solvent", "result": "14.1 ± 2.6", "unit": "%"}
    ]},
    {"compound": "CC1(C)C=Cc2c(ccc3c2OC[C@@H](c2ccc(O)cc2O)C3)O1", "note": "[Glabridin, glabridin]", "values": [
      {"measurement": "mode of antagonism", "setting": "[1]", "result": "^***/c"},
      {"measurement": "mode of antagonism", "setting": "[2]", "result": "apparent competitive antagonism"},
      {"measurement": "IC50", "result": "28 ± 2.8", "unit": "µM"},
      {"measurement": "inhibition at 100 µM", "setting": "[3]", "result": "64.7 ± 2.1", "unit": "%"},
      {"measurement": "inhibition at 100 µM", "setting": "[4]", "result": "17.3 ± 2.3", "unit": "%"},
      {"measurement": "inhibition at 100 µM", "setting": "substance 100 μM (Figure 2A), read-out: 5-HT3A receptor inhibition by the substances (screening)", "result": "62.8 ± 2.1", "unit": "%"}
    ]},
    {"compound": "CC1(C)[C@@H](O[C@H]2O[C@H](C(=O)O)[C@@H](O)[C@H](O)[C@H]2O[C@@H]2O[C@H](C(=O)O)[C@@H](O)[C@H](O)[C@H]2O)CC[C@]2(C)[C@H]3C(=O)C=C4[C@@H]5C[C@@](C)(C(=O)O)CC[C@]5(C)CC[C@@]4(C)[C@]3(C)CC[C@@H]12", "note": "[Glycyrrhizin, glycyrrhizin]", "values": [
      {"measurement": "inhibition at 1000 µM", "setting": "[5]", "result": "-3.1 ± 4.3", "unit": "%"}
    ]},
    {"compound": "COc1ccc([C@@H]2CC(=O)c3c(O)cc(O)cc3O2)cc1O", "note": "[Hesperetin, hesperetin]", "values": [
      {"measurement": "mode of antagonism", "setting": "[1]", "result": "ns/nc"},
      {"measurement": "synergistic effects between different herbal 5-HT3A receptor antagonists", "result": "synergistic"},
      {"measurement": "IC50", "result": "218 ± 38", "unit": "µM"},
      {"measurement": "inhibition at 1000 µM", "setting": "[3]", "result": "77.3 ± 9", "unit": "%"},
      {"measurement": "inhibition at 1000 µM", "setting": "[4]", "result": "79.7 ± 6.1", "unit": "%"},
      {"measurement": "5-HT3A receptor inhibition by the substances (screening)", "setting": "substance 1 mM (Figure 2A)", "result": "antagonistic effects"},
      {"measurement": "inhibition at 1000 µM", "setting": "[5]", "result": "66.6 ± 9.3", "unit": "%"}
    ]},
    {"compound": "COc1ccc([C@@H]2CC(=O)c3c(O)cc(O[C@@H]4O[C@H](CO[C@@H]5O[C@@H](C)[C@H](O)[C@@H](O)[C@H]5O)[C@@H](O)[C@H](O)[C@H]4O)cc3O2)cc1O", "note": "[Hesperidin, hesperidin]", "values": [
      {"measurement": "5-HT3A receptor inhibition by the substances (screening)", "setting": "substance 1 mM (Figure 2A)", "result": "no effect"},
      {"measurement": "5-HT3A receptor inhibition by the substances (screening)", "setting": "substance 1 mM (Figure 2A), listed as hesperidin", "result": "−2.6 ± 5.3", "unit": "%"}
    ]},
    {"compound": "C=CC(C)(C)c1cc(/C=C/C(=O)c2ccc(O)cc2)c(OC)cc1O", "note": "[Licochalcone A, licochalcone A]", "values": [
      {"measurement": "direct activation of 5-HT3A receptors", "result": "absence of the direct activation"},
      {"measurement": "residual current remaining", "setting": "5 μM 5-HT", "result": "approximately 40%"},
      {"measurement": "mode of antagonism", "setting": "[1]", "result": "^*/c"},
      {"measurement": "mode of antagonism", "setting": "[2]", "result": "apparent competitive antagonism"},
      {"measurement": "IC50", "result": "14.4 ± 1.3", "unit": "µM"},
      {"measurement": "inhibition at 1000 µM", "setting": "[3]", "result": "76.1 ± 6.1", "unit": "%"},
      {"measurement": "inhibition at 1000 µM", "setting": "[4]", "result": "58.7 ± 2.6", "unit": "%"},
      {"measurement": "inhibition at 1000 µM", "setting": "[5]", "result": "70.6 ± 3.1", "unit": "%"}
    ]},
    {"compound": "Cc1nccn1CC1CCc2c(c3ccccc3n2C)C1=O", "note": "(centres unmarked) [Ondansetron, ondansetron, reference compound]", "values": [
      {"measurement": "mode of antagonism", "setting": "[1]", "result": "^*/c"},
      {"measurement": "inhibition at 0.001 µM", "setting": "[3]", "result": "82.4 ± 3.4", "unit": "%"},
      {"measurement": "inhibition at 0.001 µM", "setting": "[4]", "result": "57.9 ± 5.3", "unit": "%"}
    ]},
    {"compound": "CC(C)=CCCC(C)CCO", "note": "(centres unmarked) [citronellol]", "values": [
      {"measurement": "synergistic effects between different herbal 5-HT3A receptor antagonists", "result": "synergistic"}
    ]},
    {"compound": "C[C@@H]1O[C@@H](OC[C@H]2O[C@@H](Oc3c(-c4ccc(O)c(O)c4)oc4cc(O)cc(O)c4c3=O)[C@H](O)[C@@H](O)[C@@H]2O)[C@H](O)[C@H](O)[C@H]1O", "note": "[rutin]", "values": [
      {"measurement": "5-HT3A receptor inhibition by the substances (screening)", "setting": "substance 1 mM (Figure 2A)", "result": "antagonistic effects"},
      {"measurement": "inhibition at 1000 µM", "setting": "[5]", "result": "57 ± 6.1", "unit": "%"}
    ]},
    {"compound": "picrotoxin [reference compound]", "values": [
      {"measurement": "mode of antagonism", "setting": "[1]", "result": "ns/nc"},
      {"measurement": "Mean inhibition ± SEM [%] 5-HT [2.5 μM]", "setting": "substance 50 μM, 5-HT 2.5 μM, 30 s preincubation", "result": "72.5 ± 3.7", "unit": "%"},
      {"measurement": "Mean inhibition ± SEM [%] 5-HT [30 μM]", "setting": "substance 50 μM, 5-HT 30 μM, 30 s preincubation", "result": "73.0 ± 2.8", "unit": "%"}
    ]}
  ]
}
